Our source for the Relative PT values is ChEMBL document CHEMBL1131152, “In vitro and in vivo activities of oligodeoxynucleotide-based thrombin inhibitors containing neutral formacetal linkages” (J Med Chem, 1998).

The experiment deals with Prothrombin (Homo sapiens) (UniProt P00734). Put plainly: Relative prothrombin time was determined as the activity of the test ODN (oligodeoxynucleotide) relative to that of GS-522.
`Cc1cn([C@H]2C[C@H](OCOC[C@H]3O[C@@H](n4cnc5c(=O)nc(N)[nH]c54)C[C@@H]3OP(=O)(O)OC[C@H]3O[C@@H](n4cnc5c(=O)[nH]c(=N)[nH]c54)C[C@@H]3OP(=O)(O)OC[C@H]3O[C@@H](n4cc(C)c(=O)[nH]c4=O)C[C@@H]3OP(=O)(O)OC[C@H]3O[C@@H](n4cc(C)c(=O)[nH]c4=O)C[C@@H]3O[PH](O)(O)OC[C@H]3O[C@@H](n4cnc5c(=O)[nH]c(=N)[nH]c54)C[C@@H]3OP(=O)(O)OC[C@H]3O[C@@H](n4cnc5c(=O)nc(N)[nH]c54)C[C@@H]3O)[C@@H](COP(=O)(O)O[C@H]3C[C@H](n4cnc5c(=O)[nH]c(=N)[nH]c54)O[C@@H]3COCO[C@H]3C[C@H](n4cc(C)c(=O)[nH]c4=O)O[C@@H]3COP(=O)(O)O[C@H]3C[C@H](n4cnc5c(=O)[nH]c(=N)[nH]c54)O[C@@H]3COP(=O)(O)O[C@H]3C[C@H](n4cnc5c(=O)nc(N)[nH]c54)O[C@@H]3COP(=O)(O)O[C@H]3C[C@H](n4cc(C)c(=O)[nH]c4=O)O[C@@H]3COP(=O)(O)O[C@H]3C[C@H](n4cc(C)c(=O)[nH]c4=O)O[C@@H]3COP(=O)(O)O[C@H]3C[C@H](n4cnc5c(=O)nc(N)[nH]c54)O[C@@H]3COP(=O)(O)O[C@H]3C[C@H](n4cnc5c(=O)nc(N)[nH]c54)O[C@@H]3COP(=O)(O)O)O2)c(=O)[nH]c1=O` showed a Relative PT of 0.7.
In the case of `Cc1cn([C@H]2C[C@H](OCOC[C@H]3O[C@@H](n4cnc5c(=O)nc(N)[nH]c54)C[C@@H]3OP(=O)(O)OC[C@H]3O[C@@H](n4cnc5c(=O)[nH]c(=N)[nH]c54)C[C@@H]3OP(=O)(O)OC[C@H]3O[C@@H](n4cc(C)c(=O)[nH]c4=O)C[C@@H]3OP(=O)(O)OC[C@H]3O[C@@H](n4cc(C)c(=O)[nH]c4=O)C[C@@H]3OP(=O)(O)OC[C@H]3O[C@@H](n4cnc5c(=O)[nH]c(=N)[nH]c54)C[C@@H]3OP(=O)(O)OC[C@H]3O[C@@H](n4cnc5c(=O)nc(N)[nH]c54)C[C@@H]3O)[C@@H](COP(=O)(O)O[C@H]3C[C@H](n4cnc5c(=O)[nH]c(=N)[nH]c54)O[C@@H]3COP(=O)(O)O[C@H]3C[C@H](n4cc(C)c(=O)[nH]c4=O)O[C@@H]3COP(=O)(O)O[C@H]3C[C@H](n4cnc5c(=O)[nH]c(=N)[nH]c54)O[C@@H]3COP(=O)(O)O[C@H]3C[C@H](n4cnc5c(=O)nc(N)[nH]c54)O[C@@H]3COP(=O)(O)O[C@H]3C[C@H](n4cc(C)c(=O)[nH]c4=O)O[C@@H]3COP(=O)(O)O[C@H]3C[C@H](n4cc(C)c(=O)[nH]c4=O)O[C@@H]3COP(=O)(O)O[C@H]3C[C@H](n4cnc5c(=O)nc(N)[nH]c54)O[C@@H]3COP(=O)(O)O[C@H]3C[C@H](n4cnc5c(=O)nc(N)[nH]c54)O[C@@H]3COP(=O)(O)O)O2)c(=O)[nH]c1=O` it was 1.1; in that of `Cc1cn([C@H]2C[C@H](OCOC[C@H]3O[C@@H](n4cnc5c(=O)nc(N)[nH]c54)C[C@@H]3OP(=O)(O)OC[C@H]3O[C@@H](n4cnc5c(=O)[nH]c(=N)[nH]c54)C[C@@H]3OP(=O)(O)OC[C@H]3O[C@@H](n4cc(C)c(=O)[nH]c4=O)C[C@@H]3OP(=O)(O)OC[C@H]3O[C@@H](n4cnc5c(=O)[nH]c(=N)[nH]c54)C[C@@H]3OP(=O)(O)OC[C@H]3O[C@@H](n4cc(C)c(=O)[nH]c4=O)C[C@@H]3OCOC[C@H]3O[C@@H](n4cnc5c(=O)nc(N)[nH]c54)C[C@@H]3OP(=O)(O)OC[C@H]3O[C@@H](n4cnc5c(=O)[nH]c(=N)[nH]c54)C[C@@H]3OP(=O)(O)OC[C@H]3O[C@@H](n4cc(C)c(=O)[nH]c4=O)C[C@@H]3OP(=O)(O)OC[C@H]3O[C@@H](n4cc(C)c(=O)[nH]c4=O)C[C@@H]3OP(=O)(O)OC[C@H]3O[C@@H](n4cnc5c(=O)[nH]c(=N)[nH]c54)C[C@@H]3OP(=O)(O)OC[C@H]3O[C@@H](n4cnc5c(=O)nc(N)[nH]c54)C[C@@H]3O)[C@@H](COP(=O)(O)O[C@H]3C[C@H](n4cc(C)c(=O)[nH]c4=O)O[C@@H]3COP(=O)(O)O[C@H]3C[C@H](n4cnc5c(=O)[nH]c(=N)[nH]c54)O[C@@H]3COP(=O)(O)O[C@H]3C[C@H](n4cnc5c(=O)[nH]c(=N)[nH]c54)O[C@@H]3COP(=O)(O)O)O2)c(=O)[nH]c1=O`, 0.7.
In the case of `Cc1cn([C@H]2C[C@H](OCOC[C@H]3O[C@@H](n4cnc5c(=O)[nH]c(=N)[nH]c54)C[C@@H]3OP(=O)(O)OC[C@H]3O[C@@H](n4cnc5c(=O)nc(N)[nH]c54)C[C@@H]3O)[C@@H](COP(=O)(O)O[C@H]3C[C@H](n4cc(C)c(=O)[nH]c4=O)O[C@@H]3COP(=O)(O)O[C@H]3C[C@H](n4cnc5c(=O)[nH]c(=N)[nH]c54)O[C@@H]3COP(=O)(O)O[C@H]3C[C@H](n4cnc5c(=O)nc(N)[nH]c54)O[C@@H]3COP(=O)(O)O[C@H]3C[C@H](n4cc(C)c(=O)[nH]c4=O)O[C@@H]3COP(=O)(O)O[C@H]3C[C@H](n4cnc5c(=O)nc(N)[nH]c54)O[C@@H]3COP(=O)(O)O[C@H]3C[C@H](n4cc(C)c(=O)[nH]c4=O)O[C@@H]3COP(=O)(O)O[C@H]3C[C@H](n4cnc5c(=O)[nH]c(=N)[nH]c54)O[C@@H]3COP(=O)(O)O[C@H]3C[C@H](n4cnc5c(=O)nc(N)[nH]c54)O[C@@H]3COP(=O)(O)O[C@H]3C[C@H](n4cc(C)c(=O)[nH]c4=O)O[C@@H]3COCO[C@H]3C[C@H](n4cc(C)c(=O)[nH]c4=O)O[C@@H]3COP(=O)(O)O[C@H]3C[C@H](n4cnc5c(=O)nc(N)[nH]c54)O[C@@H]3COP(=O)(O)O[C@H]3C[C@H](n4cnc5c(=O)nc(N)[nH]c54)O[C@@H]3COP(=O)(O)O)O2)c(=O)[nH]c1=O` it was 0.6; in that of `Cc1cn([C@H]2C[C@H](OP(=O)(O)OC[C@H]3O[C@@H](n4cnc5c(=O)nc(N)[nH]c54)C[C@@H]3OP(=O)(O)OC[C@H]3O[C@@H](n4cnc5c(=O)[nH]c(=N)[nH]c54)C[C@@H]3OP(=O)(O)OC[C@H]3O[C@@H](n4cc(C)c(=O)[nH]c4=O)C[C@@H]3OP(=O)(O)OC[C@H]3O[C@@H](n4cnc5c(=O)nc(N)[nH]c54)C[C@@H]3OP(=O)(O)OC[C@H]3O[C@@H](n4cc(C)c(=O)[nH]c4=O)C[C@@H]3OP(=O)(O)OC[C@H]3O[C@@H](n4cnc5c(=O)nc(N)[nH]c54)C[C@@H]3OCOC[C@H]3O[C@@H](n4cnc5c(=O)[nH]c(=N)[nH]c54)C[C@@H]3OP(=O)(O)OC[C@H]3O[C@@H](n4cc(C)c(=O)[nH]c4=O)C[C@@H]3OP(=O)(O)OC[C@H]3O[C@@H](n4cc(C)c(=O)[nH]c4=O)C[C@@H]3OP(=O)(O)OC[C@H]3O[C@@H](n4cnc5c(=O)[nH]c(=N)[nH]c54)C[C@@H]3OP(=O)(O)OC[C@H]3O[C@@H](n4cnc5c(=O)nc(N)[nH]c54)C[C@@H]3O)[C@@H](COP(=O)(O)O[C@H]3C[C@H](n4cc(C)c(=O)[nH]c4=O)O[C@@H]3COP(=O)(O)O[C@H]3C[C@H](n4cnc5c(=O)[nH]c(=N)[nH]c54)O[C@@H]3COP(=O)(O)O[C@H]3C[C@H](n4cnc5c(=O)nc(N)[nH]c54)O[C@@H]3COP(=O)(O)O)O2)c(=O)[nH]c1=O`, 0.8.
The figure for `Cc1cn([C@H]2C[C@H](OP(=O)(O)OC[C@H]3O[C@@H](n4cnc5c(=O)nc(N)[nH]c54)C[C@@H]3OCOC[C@H]3O[C@@H](n4cnc5c(=O)[nH]c(=N)[nH]c54)C[C@@H]3OP(=O)(O)OC[C@H]3O[C@@H](n4cc(C)c(=O)[nH]c4=O)C[C@@H]3OP(=O)(O)OC[C@H]3O[C@@H](n4cnc5c(=O)nc(N)[nH]c54)C[C@@H]3OP(=O)(O)OC[C@H]3O[C@@H](n4cc(C)c(=O)[nH]c4=O)C[C@@H]3OP(=O)(O)OC[C@H]3O[C@@H](n4cnc5c(=O)nc(N)[nH]c54)C[C@@H]3OP(=O)(O)OC[C@H]3O[C@@H](n4cnc5c(=O)[nH]c(=N)[nH]c54)C[C@@H]3OP(=O)(O)OC[C@H]3O[C@@H](n4cc(C)c(=O)[nH]c4=O)C[C@@H]3OP(=O)(O)OC[C@H]3O[C@@H](n4cc(C)c(=O)[nH]c4=O)C[C@@H]3OP(=O)(O)OC[C@H]3O[C@@H](n4cnc5c(=O)[nH]c(=N)[nH]c54)C[C@@H]3OP(=O)(O)OC[C@H]3O[C@@H](n4cnc5c(=O)nc(N)[nH]c54)C[C@@H]3O)[C@@H](COP(=O)(O)O[C@H]3C[C@H](n4cc(C)c(=O)[nH]c4=O)O[C@@H]3COP(=O)(O)O[C@H]3C[C@H](n4cnc5c(=O)[nH]c(=N)[nH]c54)O[C@@H]3COP(=O)(O)O[C@H]3C[C@H](n4cnc5c(=O)nc(N)[nH]c54)O[C@@H]3COP(=O)(O)O)O2)c(=O)[nH]c1=O` is 0.8; for `Cc1cn([C@H]2C[C@H](OCOC[C@H]3O[C@@H](n4cc(C)c(=O)[nH]c4=O)C[C@@H]3OP(=O)(O)OC[C@H]3O[C@@H](n4cnc5c(=O)nc(N)[nH]c54)C[C@@H]3OP(=O)(O)OC[C@H]3O[C@@H](n4cnc5c(=O)[nH]c(=N)[nH]c54)C[C@@H]3OP(=O)(O)OC[C@H]3O[C@@H](n4cc(C)c(=O)[nH]c4=O)C[C@@H]3OCOC[C@H]3O[C@@H](n4cnc5c(=O)[nH]c(=N)[nH]c54)C[C@@H]3OP(=O)(O)OC[C@H]3O[C@@H](n4cc(C)c(=O)[nH]c4=O)C[C@@H]3OP(=O)(O)OC[C@H]3O[C@@H](n4cnc5c(=O)nc(N)[nH]c54)C[C@@H]3OP(=O)(O)OC[C@H]3O[C@@H](n4cnc5c(=O)[nH]c(=N)[nH]c54)C[C@@H]3OP(=O)(O)OC[C@H]3O[C@@H](n4cc(C)c(=O)[nH]c4=O)C[C@@H]3OCOC[C@H]3O[C@@H](n4cc(C)c(=O)[nH]c4=O)C[C@@H]3OP(=O)(O)OC[C@H]3O[C@@H](n4cnc5c(=O)[nH]c(=N)[nH]c54)C[C@@H]3OP(=O)(O)OC[C@H]3O[C@@H](n4cnc5c(=O)nc(N)[nH]c54)C[C@@H]3O)[C@@H](COP(=O)(O)O[C@H]3C[C@H](n4cnc5c(=O)nc(N)[nH]c54)O[C@@H]3COP(=O)(O)O[C@H]3C[C@H](n4cnc5c(=O)[nH]c(=N)[nH]c54)O[C@@H]3COP(=O)(O)O)O2)c(=O)[nH]c1=O` it is 0.9.
